In ChEMBL document CHEMBL1152503, “Quantitative high-throughput screening identifies inhibitors of anthrax-induced cell death” (Bioorg Med Chem, 2009):
pIC50: −log10 of the molar value. Active and inactive are the calls of the source. The rule behind the calls is not given here.

Experiments:
[1] = test system: RAW264.7; test: Cytoprotective activity against anthrax toxin lethal factor/protective antigen-induced cell death in mouse RAW264.7 cells assessed as cell viability at 10 uM by MTT reduction assay; type: functional, cell-based
[2] = test system: CHO; test: Cytoprotective activity against diphtheria toxin-induced cell death in CHO cells assessed as cell viability at 10 uM by MTT reduction assay; type: functional; settings: Cricetulus griseus, read-out: Activity
[3] = test system: CHO; test: Cytoprotective activity against anthrax fusion toxin FP59-induced cell death in CHO cells assessed as cell viability by MTT reduction assay; type: functional, cell-based; settings: Cricetulus griseus
[4] = test system: RAW264.7; test: Cytoprotective activity against anthrax lethal toxin-induced cell death in mouse RAW264.7 cells assessed as cell viability at 2 uM preincubated for 45 mins with lethal toxin measured after 1 hr by MTT reduction assay; type: functional, cell-based
[5] = test system: CHO; test: Cytoprotective activity against diphtheria toxin-induced cell death in CHO cells assessed as cell viability at 5 uM by MTT reduction assay; type: functional; settings: Cricetulus griseus, read-out: Activity
[6] = test system: RAW264.7; test: Cytoprotective activity against anthrax toxin lethal factor-induced cell death in mouse RAW264.7 cells assessed as cell viability at 3 uM by MTT reduction assay; type: functional, cell-based
[7] = target: Replicase polyprotein 1ab (Severe acute respiratory syndrome-related coronavirus, UniProt P0C6X7); test: Inhibition of SARS Co-V 3CL protease
[8] = test system: RAW264.7; test: Cytotoxicity against mouse RAW264.7 cells at 10 uM by MTT assay; type: cell-based; settings: raw264.7, 10 µM

Cc1ccc2oc(=O)c3cnn(CC(=O)Nc4ccccc4N4CCN(C)CC4)c3c2c1
Activity [1]: Active
viability at 10 µM [2]: 75%
Activity [3]: Active

COc1cc2c(O)c3c(c(-c4ccc5c(c4)OCO5)c2cc1OC)C(=O)OC3 [DIPHYLLIN]
Activity [4]: Active
Activity [3]: Active
viability at 5 µM [5]: 100%
Activity [6]: Active

N=C1Sc2ccccc2C2=NCCCN12
Activity [1]: inactive

Cc1ccnc(-n2sc3ccccc3c2=O)n1
Activity [1]: inactive

O=C(Nc1ccc([N+](=O)[O-])cc1Cl)c1cc(Cl)ccc1O [NICLOSAMIDE]
Activity [1]: Active
pIC50 [7]: 4.40
Activity [3]: Active
viability at 5 µM [5]: 100%

CN(C)CCCn1cc(C2=C(c3c[nH]c4ccccc34)C(=O)NC2=O)c2ccccc21 [GF-109203]
viability at 10 µM [2]: 60%
Activity [8]: Toxic
